Assay results published in patent publication US11078153B2, “2-difluoro substituted 4-aminocyclopentanecarboxylic acids as inhibitors of gamma-aminobutyric acid aminotransferase and human ornithine aminotransferase” (Northwestern University, priority 2019, dated 2021).
“Also recorded” adds a separate entry of the source. Read-outs that look alike come from different tables or passages of the source.

What was measured:
[1] = cocaine addiction in humans, 9-week double-blind trial; cited from earlier work
[2] = long-term administration; cited from earlier work
[3] = system: GABA-AT; assay: Concentration dependent assay of GABA-AT; format: biochemical
[4] = system: GABA-AT; assay: Time-dependent assay with GABA-AT; format: biochemical
[5] = biological target: T1, OAT (Homo sapiens, UniProt P04181); assay: OAT inhibition / inactivation assay (concentration-dependent assay with OAT); format: biochemical
T1 sequence (P04181 36-439 limits assumed): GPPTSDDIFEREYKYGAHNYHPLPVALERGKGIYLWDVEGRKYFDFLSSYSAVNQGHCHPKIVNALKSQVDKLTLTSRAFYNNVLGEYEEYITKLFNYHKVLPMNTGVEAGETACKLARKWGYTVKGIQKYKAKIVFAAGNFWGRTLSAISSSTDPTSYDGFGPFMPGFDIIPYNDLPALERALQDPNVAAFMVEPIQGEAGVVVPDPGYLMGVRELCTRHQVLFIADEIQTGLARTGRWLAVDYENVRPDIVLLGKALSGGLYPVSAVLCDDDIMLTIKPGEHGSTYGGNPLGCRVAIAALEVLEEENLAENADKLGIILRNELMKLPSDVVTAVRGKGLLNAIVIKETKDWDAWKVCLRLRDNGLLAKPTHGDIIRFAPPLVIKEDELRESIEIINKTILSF

[6] = biological target: T1, OAT; assay: Time-dependent assay with OAT (kinact/KI); format: biochemical
Excerpt: In summary, enantiomerically pure 1 was synthesized from an enantiomerically pure Vince lactam in six steps.

[7] = biological target: T1, OAT; assay: OAT fluoride release assay; format: biochemical; settings: without α-ketoglutarate, FIG. 3
Protocol: An OAT fluoride release assay was performed with NAL-1-47 and it was calculated that there were 13.02 fluoride ions released per enzyme active site (FIG. 3).

[8] = biological target: T1, OAT; assay: Dialysis assay of NAL-1-47 with OAT; format: biochemical; settings: for Percent Activity Remaining of OAT with NAL-1-47: pre-incubated overnight at 37° C.
Protocol: NAL-1-47 was incubated with OAT then dialyzed to determine whether it functions as a reversible inhibitor or an irreversible inactivator of OAT. NAL-1-47 was pre-incubated overnight at 37° C. with OAT. The remaining activity of the OAT was determined for 20, 50, 80, and 120 equiv of NAL-1-47 per OAT active site. The inactivated OAT was then dialyzed for 144 h and using a control, it was confirmed that the control OAT retained the majority of its activity after this dialysis.

[9] = biological target: T1, OAT; assay: Partition ratio assay of OAT; format: biochemical; settings: with α-KG, FIG. 5
Protocol: A partition ratio assay of OAT with NAL-1-47 was performed to determine the ratio of the compound acting as a substrate to the compound inactivating the enzyme.

[10] = listed as S, S enantiomer, hydrochloride

C=CC(N)CCC(=O)O (centres unmarked) [Vigabatrin]
patients achieving abstinence [1]: up to 28%
permanent vision loss, share of epilepsy patients [2]: 25-40%

N[C@@H]1C[C@H](C(=O)O)C(F)(F)C1 [NAL-1-73]
inhibition of GABA-AT (in words) [3]: neither compound potently inhibited GABA-AT
Activity Remaining (GABA-AT) ([3]; Conc. 0.0781 mM): 100.9%
Activity Remaining (GABA-AT) ([3]; Conc. 0.1563 mM): 94.5%
Activity Remaining (GABA-AT) ([3]; Conc. 0.3125 mM): 95.1%
Activity Remaining (GABA-AT) ([3]; Conc. 0.625 mM): 103.5%
Activity Remaining (GABA-AT) ([3]; Conc. 1.25 mM): 88.8%
Activity Remaining (GABA-AT) ([3]; Conc. 2.5 mM): 85.2%
Activity Remaining (GABA-AT) ([3]; Conc. 5 mM): 70.3%
Activity Remaining (GABA-AT) ([3]; Conc. 10 mM): 55.3%
inhibition of GABA-AT (in words) ([3]; listed as R, R enantiomer): did not inhibit either OAT or GABA-AT potently
inhibitory activity against GABA-AT in time-dependent assays (in words) [4]: no significant inhibitory activity
inhibition / inactivation of OAT (in words) ([5]; listed as R, R enantiomer): did not inhibit either OAT or GABA-AT potently

Cl.N[C@H]1C[C@@H](C(=O)O)C(F)(F)C1 [NAL-1-47, (1S,4S)-4-amino-2,2-difluorocyclopentanecarboxylic acid hydrochloride]
kinact/KI ([6]; OAT, Example 2, FIG. 4, read-out: kinact/KI (converted)): 1.13 M⁻¹ s⁻¹
kinact/KI ([6]; time-dependent assay with OAT, Example 1): 2.67 M⁻¹ s⁻¹
fluoride ions released per enzyme active site [7]: 13.02
Percent Activity Remaining of OAT with NAL-1-47 ([8]; 20 equiv per OAT active site): 67.3%
Percent Activity Remaining of OAT with NAL-1-47 after 144 h Dialysis ([8]; 20 equiv): 63.3%
Percent Activity Remaining of OAT with NAL-1-47 ([8]; 50 equiv per OAT active site): 52.5%
Percent Activity Remaining of OAT with NAL-1-47 after 144 h Dialysis ([8]; 50 equiv): 38.5%
Percent Activity Remaining of OAT with NAL-1-47 ([8]; 80 equiv per OAT active site): 31.7%
Percent Activity Remaining of OAT with NAL-1-47 after 144 h Dialysis ([8]; 80 equiv): 27.6%
Percent Activity Remaining of OAT with NAL-1-47 ([8]; 120 equiv per OAT active site): 21.1%
Percent Activity Remaining of OAT with NAL-1-47 after 144 h Dialysis ([8]; 120 equiv): 15.1%
Activity Remaining (GABA-AT) ([3]; Conc. 0.0781 mM): 110.6%
Activity Remaining (GABA-AT) ([3]; Conc. 0.1563 mM): 100.7%
Activity Remaining (GABA-AT) ([3]; Conc. 0.3125 mM): 91.0%
Activity Remaining (GABA-AT) ([3]; Conc. 0.625 mM): 93.6%
Activity Remaining (GABA-AT) ([3]; Conc. 1.25 mM): 93.4%
Activity Remaining (GABA-AT) ([3]; Conc. 2.5 mM): 88.3%
Activity Remaining (GABA-AT) ([3]; Conc. 5 mM): 67.8%
Activity Remaining (GABA-AT) ([3]; Conc. 10 mM): 44.7%
inhibition of GABA-AT (in words) ([3]; hydrochloride): does not inhibit GABA-AT potently; also recorded: neither compound potently inhibited GABA-AT
inhibition of GABA-AT (in words) ([3]; listed as 1, hydrochloride): inhibitory activity against the enzymes GABA-AT and OAT
inhibition of GABA-AT (in words) [3, 10]: only very weakly inhibit GABA-AT
inhibitory activity against GABA-AT in time-dependent assays (in words) [4]: no significant inhibitory activity
partition ratio [9]: 54.5
inhibition / inactivation of OAT (in words) ([5]; hydrochloride): shown to inactivate OAT; also recorded: found to inhibit OAT potently
inhibition / inactivation of OAT (in words) ([5]; listed as 1, hydrochloride): inhibitory activity against the enzymes GABA-AT and OAT; also recorded: inhibit OAT more potently than the racemic version of this compound; also recorded: determined as an inactivator; also recorded: selectively inactivate OAT and was more potent than the racemic compound
inhibition / inactivation of OAT (in words) [5, 10]: inactivate OAT
